For the data set, the system named is cancer cells. Description: MTT cytotoxic assay of esterification products (Cytotoxicity activity). In kind it is cell-based, human. The conditions noted are these: esterification products isolated with HPLC; graded strong / moderate / weak. Summed up: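 Cytotoxicity was read by MTT (Carmichael method, modified), with cells seeded 24 h ahead of treatment. Sixteen human cancer lines spanning bone, lung, bladder, ovary, colon, pancreas, prostate, skin, mouth, kidney, breast, liver, brain, leukemia and cervix were used. Test samples were acyl chloride esterification products of triterpenes, as mixtures or HPLC-purified compounds.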

In the case of `CC=C(C)C(=O)OCC1(C)C(O)CCC2(C)C1CCC1(C)C2CC=C2C3CC(C)(C)C(O)C(OC(=O)C(CC)CC)C3(COC(=O)C(CC)CC)C(O)CC21C` (centres unmarked) [Tig—Eth—3], the Cytotoxicity activity result is given as “moderate”.

Take `CC=C(C)C(=O)OCC1(C)C(O)CCC2(C)C1CCC1(C)C2CC=C2C3CC(C)(C)C(OC(=O)C(CC)CC)C(O)C3(CO)C(O)CC21C` (centres unmarked) [Tig—Eth—5]: the Cytotoxicity activity result was “moderate”.

Take `CC=C(C)C(=O)OCC1(C)C(O)CCC2(C)C1CCC1(C)C2CC=C2C3CC(C)(C)C(O)C(OC(=O)C(CC)CC)C3(CO)C(O)CC21C` (centres unmarked) [Tig—Eth—6]: the Cytotoxicity activity result was “moderate”.

Take `CC=C(C)C(=O)OCC1(C)C(O)CCC2(C)C1CCC1(C)C2CC=C2C3CC(C)(C)C(O)C(O)C3(COC(=O)CCCCC)C(O)CC21C` (centres unmarked) [Tig—Hex—1]: the Cytotoxicity activity result is listed as “strong”.

Regarding `CC=C(C)C(=O)OCC1(C)C(O)CCC2(C)C1CCC1(C)C2CC=C2C3CC(C)(C)C(OC(=O)CCCCC)C(O)C3(COC(=O)CCCCC)C(O)CC21C` (centres unmarked) [Tig—Hex—2], the Cytotoxicity activity entry is on record as “moderate”.

For `CC=C(C)C(=O)OCC1(C)C(O)CCC2(C)C1CCC1(C)C2CC=C2C3CC(C)(C)C(O)C(OC(=O)CCCCC)C3(COC(=O)CCCCC)C(O)CC21C` (centres unmarked) [Tig—Hex—3], the Cytotoxicity activity result is listed as “moderate”.

Regarding `CC=C(C)C(=O)OCC1(C)C(OC(=O)CCCCC)CCC2(C)C1CCC1(C)C2CC=C2C3CC(C)(C)C(O)C(O)C3(COC(=O)CCCCC)C(O)CC21C` (centres unmarked) [Tig—Hex—4], the Cytotoxicity activity result was “moderate”.

In the case of `CC=C(C)C(=O)OCC1(C)C(O)CCC2(C)C1CCC1(C)C2CC=C2C3CC(C)(C)C(OC(=O)CCCCC)C(O)C3(CO)C(O)CC21C` (centres unmarked) [Tig—Hex—5], the Cytotoxicity activity result was “moderate”.

As for `CC=C(C)C(=O)OCC1(C)C(O)CCC2(C)C1CCC1(C)C2CC=C2C3CC(C)(C)C(O)C(OC(=O)CCCCC)C3(CO)C(O)CC21C` (centres unmarked) [Tig—Hex—6], the Cytotoxicity activity result is given as “moderate”.

Take `C=CCCC(=O)OCC12C(O)CC3(C)C(=CCC4C5(C)CCC(O)C(C)(COC(=O)C(C)=CC)C5CCC43C)C1CC(C)(C)C(O)C2O` (centres unmarked) [Tig—Pen—1]: the Cytotoxicity activity entry is listed as “strong”.

`C=CCCC(=O)OCC12C(O)CC3(C)C(=CCC4C5(C)CCC(O)C(C)(COC(=O)C(C)=CC)C5CCC43C)C1CC(C)(C)C(OC(=O)CCC=C)C2O` (centres unmarked) [Tig—Pen—2]: the Cytotoxicity activity result is given as “moderate”.

As for `C=CCCC(=O)OCC12C(O)CC3(C)C(=CCC4C5(C)CCC(O)C(C)(COC(=O)C(C)=CC)C5CCC43C)C1CC(C)(C)C(O)C2OC(=O)CCC=C` (centres unmarked) [Tig—Pen—3], the Cytotoxicity activity entry is “moderate”.

Consider `C=CCCC(=O)OCC12C(O)CC3(C)C(=CCC4C5(C)CCC(OC(=O)CCC=C)C(C)(COC(=O)C(C)=CC)C5CCC43C)C1CC(C)(C)C(O)C2O` (centres unmarked) [Tig—Pen—4], for which the Cytotoxicity activity result is “moderate”.

`C=CCCC(=O)OC1C(O)C2(CO)C(O)CC3(C)C(=CCC4C5(C)CCC(O)C(C)(COC(=O)C(C)=CC)C5CCC43C)C2CC1(C)C` (centres unmarked) [Tig—Pen—5]: the Cytotoxicity activity result is listed as “moderate”.

As for `C=CCCC(=O)OC1C(O)C(C)(C)CC2C3=CCC4C5(C)CCC(O)C(C)(COC(=O)C(C)=CC)C5CCC4(C)C3(C)CC(O)C21CO` (centres unmarked) [Tig—Pen—6], the Cytotoxicity activity result is recorded as “moderate”.

Consider `CC=C(C)C(=O)OCC1(C)C(O)CCC2(C)C1CCC1(C)C2CC=C2C3CC(C)(C)C(OC(C)=O)C(OC(C)=O)C3(COC(=O)C(C)=CC)C(O)CC21C` (centres unmarked) [Tig—R—Acy—1], for which the Cytotoxicity activity entry is “weak”.

Turning to `CC=C(C)C(=O)OCC1(C)C(O)CCC2(C)C1CCC1(C)C2CC=C2C3CC(C)(C)C(OC(C)=O)C(O)C3(COC(=O)C(C)=CC)C(O)CC21C` (centres unmarked) [Tig—R—Acy—2], the Cytotoxicity activity result is on record as “moderate”.

As for `CC=C(C)C(=O)OCC1(C)C(O)CCC2(C)C1CCC1(C)C2CC=C2C3CC(C)(C)C(O)C(OC(C)=O)C3(COC(=O)C(C)=CC)C(O)CC21C` (centres unmarked) [Tig—R—Acy—3], the Cytotoxicity activity result is reported as “moderate”.

`CC=C(C)C(=O)OCC1(C)C(OC(C)=O)CCC2(C)C1CCC1(C)C2CC=C2C3CC(C)(C)C(O)C(O)C3(COC(=O)C(C)=CC)C(O)CC21C` (centres unmarked) [Tig—R—Acy—4]: the Cytotoxicity activity result is reported as “moderate”.

Take `CC=C(C)C(=O)OCC1(C)C(OC(C)=O)CCC2(C)C1CCC1(C)C2CC=C2C3CC(C)(C)C(OC(C)=O)C(O)C3(COC(=O)C(C)=CC)C(O)CC21C` (centres unmarked) [Tig—R—Acy—5]: the Cytotoxicity activity result was “weak”.

Turning to `CC=C(C)C(=O)OCC1(C)C(OC(C)=O)CCC2(C)C1CCC1(C)C2CC=C2C3CC(C)(C)C(O)C(OC(C)=O)C3(COC(=O)C(C)=CC)C(O)CC21C` (centres unmarked) [Tig—R—Acy—6], the Cytotoxicity activity result is listed as “weak”.

Regarding `CC=C(C)C(=O)OCC1(C)C(O)CCC2(C)C1CCC1(C)C2CC=C2C3CC(C)(C)C(OC(=O)C(C)=CC)C(OC(=O)C(C)=CC)C3(COC(=O)C(C)=CC)C(O)CC21C` (centres unmarked) [Tig—R—Ang—1], the Cytotoxicity activity entry is given as “weak”.

With `CC=C(C)C(=O)OCC1(C)C(OC(=O)C(C)=CC)CCC2(C)C1CCC1(C)C2CC=C2C3CC(C)(C)C(OC(=O)C(C)=CC)C(O)C3(COC(=O)C(C)=CC)C(O)CC21C` (centres unmarked) [Tig—R—Ang—5], the Cytotoxicity activity entry is “weak”.

For the compound `CC=C(C)C(=O)OCC1(C)C(OC(=O)C(C)=CC)CCC2(C)C1CCC1(C)C2CC=C2C3CC(C)(C)C(O)C(OC(=O)C(C)=CC)C3(COC(=O)C(C)=CC)C(O)CC21C` (centres unmarked) [Tig—R—Ang—6], the Cytotoxicity activity result is recorded as “weak”.

As for `CC=C(C)C(=O)OCC1(C)C(O)CCC2(C)C1CCC1(C)C2CC=C2C3CC(C)(C)C(OC(=O)C=Cc4ccccc4)C(OC(=O)C=Cc4ccccc4)C3(COC(=O)C(C)=CC)C(O)CC21C` (centres unmarked) [Tig—R—Cin—1], the Cytotoxicity activity entry is “weak”.

Consider `CC=C(C)C(=O)OCC1(C)C(O)CCC2(C)C1CCC1(C)C2CC=C2C3CC(C)(C)C(OC(=O)C=Cc4ccccc4)C(O)C3(COC(=O)C(C)=CC)C(O)CC21C` (centres unmarked) [Tig—R—Cin—2], for which the Cytotoxicity activity entry is on record as “moderate”.

Regarding `CC=C(C)C(=O)OCC1(C)C(O)CCC2(C)C1CCC1(C)C2CC=C2C3CC(C)(C)C(O)C(OC(=O)C=Cc4ccccc4)C3(COC(=O)C(C)=CC)C(O)CC21C` (centres unmarked) [Tig—R—Cin—3], the Cytotoxicity activity entry is on record as “moderate”.

Take `CC=C(C)C(=O)OCC1(C)C(OC(=O)C=Cc2ccccc2)CCC2(C)C1CCC1(C)C2CC=C2C3CC(C)(C)C(O)C(O)C3(COC(=O)C(C)=CC)C(O)CC21C` (centres unmarked) [Tig—R—Cin—4]: the Cytotoxicity activity entry is “moderate”.

For the compound `CC=C(C)C(=O)OCC1(C)C(OC(=O)C=Cc2ccccc2)CCC2(C)C1CCC1(C)C2CC=C2C3CC(C)(C)C(OC(=O)C=Cc4ccccc4)C(O)C3(COC(=O)C(C)=CC)C(O)CC21C` (centres unmarked) [Tig—R—Cin—5], the Cytotoxicity activity entry is listed as “weak”.

`CC=C(C)C(=O)OCC1(C)C(OC(=O)C=Cc2ccccc2)CCC2(C)C1CCC1(C)C2CC=C2C3CC(C)(C)C(O)C(OC(=O)C=Cc4ccccc4)C3(COC(=O)C(C)=CC)C(O)CC21C` (centres unmarked) [Tig—R—Cin—6]: the Cytotoxicity activity entry is listed as “weak”.

Regarding `CC=CC(=O)OC1C(OC(=O)C=CC)C2(COC(=O)C(C)=CC)C(O)CC3(C)C(=CCC4C5(C)CCC(O)C(C)(COC(=O)C(C)=CC)C5CCC43C)C2CC1(C)C` (centres unmarked) [Tig—R—Cro—1], the Cytotoxicity activity entry was “weak”.

Regarding `CC=CC(=O)OC1C(O)C2(COC(=O)C(C)=CC)C(O)CC3(C)C(=CCC4C5(C)CCC(O)C(C)(COC(=O)C(C)=CC)C5CCC43C)C2CC1(C)C` (centres unmarked) [Tig—R—Cro—2], the Cytotoxicity activity entry is reported as “moderate”.

For the compound `CC=CC(=O)OC1C(O)C(C)(C)CC2C3=CCC4C5(C)CCC(O)C(C)(COC(=O)C(C)=CC)C5CCC4(C)C3(C)CC(O)C21COC(=O)C(C)=CC` (centres unmarked) [Tig—R—Cro—3], the Cytotoxicity activity entry is on record as “moderate”.

With `CC=CC(=O)OC1CCC2(C)C(CCC3(C)C2CC=C2C4CC(C)(C)C(O)C(O)C4(COC(=O)C(C)=CC)C(O)CC23C)C1(C)COC(=O)C(C)=CC` (centres unmarked) [Tig—R—Cro—4], the Cytotoxicity activity entry is listed as “moderate”.

For the compound `CC=CC(=O)OC1C(O)C2(COC(=O)C(C)=CC)C(O)CC3(C)C(=CCC4C5(C)CCC(OC(=O)C=CC)C(C)(COC(=O)C(C)=CC)C5CCC43C)C2CC1(C)C` (centres unmarked) [Tig—R—Cro—5], the Cytotoxicity activity entry is on record as “weak”.

As to `CC=CC(=O)OC1CCC2(C)C(CCC3(C)C2CC=C2C4CC(C)(C)C(O)C(OC(=O)C=CC)C4(COC(=O)C(C)=CC)C(O)CC23C)C1(C)COC(=O)C(C)=CC` (centres unmarked) [Tig—R—Cro—6], the Cytotoxicity activity entry was “weak”.

`CC=C(C)C(=O)OCC1(C)C(O)CCC2(C)C1CCC1(C)C2CC=C2C3CC(C)(C)C(OC(=O)C(CC)CC)C(OC(=O)C(CC)CC)C3(COC(=O)C(C)=CC)C(O)CC21C` (centres unmarked) [Tig—R—Eth—1]: the Cytotoxicity activity entry is “weak”.

Take `CC=C(C)C(=O)OCC1(C)C(O)CCC2(C)C1CCC1(C)C2CC=C2C3CC(C)(C)C(OC(=O)C(CC)CC)C(O)C3(COC(=O)C(C)=CC)C(O)CC21C` (centres unmarked) [Tig—R—Eth—2]: the Cytotoxicity activity entry was “moderate”.

As for `CC=C(C)C(=O)OCC1(C)C(O)CCC2(C)C1CCC1(C)C2CC=C2C3CC(C)(C)C(O)C(OC(=O)C(CC)CC)C3(COC(=O)C(C)=CC)C(O)CC21C` (centres unmarked) [Tig—R—Eth—3], the Cytotoxicity activity result is recorded as “moderate”.

For the compound `CC=C(C)C(=O)OCC1(C)C(OC(=O)C(CC)CC)CCC2(C)C1CCC1(C)C2CC=C2C3CC(C)(C)C(O)C(O)C3(COC(=O)C(C)=CC)C(O)CC21C` (centres unmarked) [Tig—R—Eth—4], the Cytotoxicity activity result is “moderate”.

Regarding `CC=C(C)C(=O)OCC1(C)C(OC(=O)C(CC)CC)CCC2(C)C1CCC1(C)C2CC=C2C3CC(C)(C)C(OC(=O)C(CC)CC)C(O)C3(COC(=O)C(C)=CC)C(O)CC21C` (centres unmarked) [Tig—R—Eth—5], the Cytotoxicity activity entry was “weak”.

For the compound `CC=C(C)C(=O)OCC1(C)C(OC(=O)C(CC)CC)CCC2(C)C1CCC1(C)C2CC=C2C3CC(C)(C)C(O)C(OC(=O)C(CC)CC)C3(COC(=O)C(C)=CC)C(O)CC21C` (centres unmarked) [Tig—R—Eth—6], the Cytotoxicity activity result was “weak”.

As to `CC=C(C)C(=O)OCC1(C)C(O)CCC2(C)C1CCC1(C)C2CC=C2C3CC(C)(C)C(OC(=O)CCCCC)C(OC(=O)CCCCC)C3(COC(=O)C(C)=CC)C(O)CC21C` (centres unmarked) [Tig—R—Hex—1], the Cytotoxicity activity result is “weak”.

As to `CC=C(C)C(=O)OCC1(C)C(O)CCC2(C)C1CCC1(C)C2CC=C2C3CC(C)(C)C(OC(=O)CCCCC)C(O)C3(COC(=O)C(C)=CC)C(O)CC21C` (centres unmarked) [Tig—R—Hex—2], the Cytotoxicity activity entry is listed as “moderate”.

Source of the values: US20230340012A1, “NATURAL AND SYNTHETIC COMPOUNDS FOR TREATING CANCER AND OTHER DISEASES” (PACIFIC ARROW LIMITED, priority 2009, published 2023).
